For 21 molecules, T/C results are on record in PubChem BioAssay AID330 (DTP/NCI, 2004).

This test has as its system P388 leukemia ip, CD2F1 mice, survival T/C. Put plainly: NCI In Vivo Anticancer Drug Screen. Data for tumor model P388 Leukemia (intraperitoneal) in CD2F1 (CDF1) mice. To be noted: endpoint: median survival time, higher = longer survival. The method in brief:
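Mice carrying the transplanted tumor received test compound or vehicle. Survival was recorded in each group, and the value is the treated-group measurement divided by that of the vehicle-treated control group.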

Setting [1] is: dose: 6.25 mg/kg/injection, schedule: Q01DX009 (ip), vehicle: saline.
The mark [2] stands for this setting: dose: 50.0 mg/kg/injection, schedule: Q01DX005 (ip), vehicle: Klucel (hydroxypropylcellulose) (HPC).
The mark [3] stands for this setting: dose: 100.0 mg/kg/injection, schedule: Q01DX005 (ip), vehicle: Klucel (hydroxypropylcellulose) (HPC).
Setting [4] is: dose: 200.0 mg/kg/injection, schedule: Q01DX005 (ip), vehicle: Klucel (hydroxypropylcellulose) (HPC).
[5] abbreviates: dose: 50.0 mg/kg/injection, schedule: Q01DX005 (ip), vehicle: saline with Tween-80.
The mark [6] stands for this setting: dose: 100.0 mg/kg/injection, schedule: Q01DX005 (ip), vehicle: saline with Tween-80.
Setting [7] is: dose: 200.0 mg/kg/injection, schedule: Q01DX005 (ip), vehicle: saline with Tween-80.

Values joined by “and” are separate entries in the source; they are usually repeats but may differ in a detail not shown here. Identical values can stand only once. Inconclusive results and toxic doses are left out.

Regarding `[CH3][Sn]1([CH3])[O]C(=O)C(=O)[O]1`, the T/C runs as follows: (dose: 6.25 mg/kg/injection, schedule: Q01DX001 (ip), vehicle: Klucel (hydroxypropylcellulose) (HPC)) 105 % of control; (dose: 12.5 mg/kg/injection, schedule: Q01DX001 (ip), vehicle: Klucel (hydroxypropylcellulose) (HPC)) 102 % of control; (dose: 25.0 mg/kg/injection, schedule: Q01DX001 (ip), vehicle: Klucel (hydroxypropylcellulose) (HPC)) 101 % of control.
In the case of `CC(=O)[O][Sn]([CH3])([CH3])[c]1ccccc1`, the T/C reads like this: (dose: 1.56 mg/kg/injection, schedule: Q01DX009 (ip), vehicle: saline) 98 % of control and 104 % of control; (dose: 3.12 mg/kg/injection, schedule: Q01DX009 (ip), vehicle: saline) 98 % of control and 110 % of control; under setting [1], 98 % of control and 117 % of control and 96 % of control; (dose: 12.5 mg/kg/injection, schedule: Q01DX009 (ip), vehicle: saline) 104 % of control and 120 % of control.
Consider `CS(=N)(=O)CCC(N)C(=O)O` (configuration not stated) (tested in a mixture with another compound), for which the T/C runs as follows: (dose: 25.0 mg/kg/injection, schedule: Q01DX001 (ip), vehicle: saline) 100 % of control; (dose: 50.0 mg/kg/injection, schedule: Q01DX001 (ip), vehicle: saline) 105 % of control; (dose: 100.0 mg/kg/injection, schedule: Q01DX001 (ip), vehicle: saline) 105 % of control.
Consider `CN(/C=C1\CCCCC1=O)c1ccccc1`, for which the T/C by setting is: (dose: 50.0 mg/kg/injection, schedule: Q01DX009 (ip), vehicle: saline with Tween-80) 98 % of control; (dose: 100.0 mg/kg/injection, schedule: Q01DX009 (ip), vehicle: saline with Tween-80) 102 % of control; (dose: 200.0 mg/kg/injection, schedule: Q01DX009 (ip), vehicle: saline with Tween-80) 113 % of control.
Turning to `C[Si](C)(C)N=S1(=N[Si](C)(C)C)CCCC1`, the T/C (dose: 50.0 mg/kg/injection, schedule: Q01DX005 (ip), vehicle: olive oil, sesame oil, peanut oil) was 109 % of control; the T/C (dose: 100.0 mg/kg/injection, schedule: Q01DX005 (ip), vehicle: olive oil, sesame oil, peanut oil) is 109 % of control; the T/C (dose: 200.0 mg/kg/injection, schedule: Q01DX005 (ip), vehicle: olive oil, sesame oil, peanut oil) is 114 % of control.
As to `CCC1=NOC(n2c3ccccc3c3ccccc32)C1` (configuration not stated), the T/C under setting [2] is 100 % of control, the T/C under setting [3] is 100 % of control and the T/C under setting [4] was 95 % of control.
With `O=c1[nH]c(=O)n(C2OC(CO)C(O)C2O)cc1N1CCOCC1` (configuration not stated), the T/C runs as follows: (dose: 50.0 mg/kg/injection, schedule: Q01DX005 (ip), vehicle: saline) 100 % of control; (dose: 100.0 mg/kg/injection, schedule: Q01DX005 (ip), vehicle: saline) 100 % of control; (dose: 200.0 mg/kg/injection, schedule: Q01DX005 (ip), vehicle: saline) 98 % of control.
As to `O=C(NCCCl)Nc1[nH]c(=O)ncc1Br`, the T/C runs as follows: (dose: 60.0 mg/kg/injection, schedule: Q01DX005 (ip), vehicle: saline with Tween-80) 104 % of control; (dose: 120.0 mg/kg/injection, schedule: Q01DX005 (ip), vehicle: saline with Tween-80) 102 % of control; (dose: 240.0 mg/kg/injection, schedule: Q01DX005 (ip), vehicle: saline with Tween-80) 112 % of control.
For the molecule `CCC(=O)c1c(O)cc(O)cc1O`, the T/C runs as follows: (dose: 50.0 mg/kg/injection, schedule: Q04DX003 (ip), vehicle: saline with Tween-80) 103 % of control; (dose: 100.0 mg/kg/injection, schedule: Q04DX003 (ip), vehicle: saline with Tween-80) 103 % of control; (dose: 200.0 mg/kg/injection, schedule: Q04DX003 (ip), vehicle: saline with Tween-80) 102 % of control; (dose: 400.0 mg/kg/injection, schedule: Q04DX003 (ip), vehicle: saline with Tween-80) 103 % of control.
For `NCCCCC(C(=O)NC(CO)C(=O)O)N(C(=O)OCc1ccccc1)C(=O)OCc1ccccc1` (configuration not stated), the T/C by setting is: under setting [5], 101 % of control; under setting [6], 101 % of control; under setting [7], 90 % of control.
With `COc1cc(C)c(O)c(C/C=C(\C)CC(=O)[C@H]2[C@]3(C)CCC[C@]3(C)[C@@]23C[C@H](O)C(C)(C)O3)c1`, the T/C reads like this: (dose: 8.75 mg/kg/injection, schedule: Q01DX005 (ip), vehicle: saline with Tween-80) 95 % of control; (dose: 17.5 mg/kg/injection, schedule: Q01DX005 (ip), vehicle: saline with Tween-80) 92 % of control; (dose: 35.0 mg/kg/injection, schedule: Q01DX005 (ip), vehicle: saline with Tween-80) 96 % of control.
Consider `COc1ccc2c(Cc3ccccc3)c3[n+](cc2c1OC)CCc1cc2c(cc1-3)OCO2`, for which the T/C (dose: 1.56 mg/kg/injection, schedule: Q01DX005 (ip), vehicle: Klucel (hydroxypropylcellulose) (HPC)) was 113 % of control; the T/C (dose: 3.12 mg/kg/injection, schedule: Q01DX005 (ip), vehicle: Klucel (hydroxypropylcellulose) (HPC)) is 115 % of control; the T/C (dose: 6.25 mg/kg/injection, schedule: Q01DX005 (ip), vehicle: Klucel (hydroxypropylcellulose) (HPC)) was 113 % of control and 115 % of control; the T/C (dose: 12.5 mg/kg/injection, schedule: Q01DX005 (ip), vehicle: Klucel (hydroxypropylcellulose) (HPC)) is 118 % of control.
Consider `CCC(=O)[O][Bi]([c]1ccccc1)[c]1ccccc1`, for which the T/C (dose: 25.0 mg/kg/injection, schedule: Q01DX005 (ip), vehicle: Klucel (hydroxypropylcellulose) (HPC)) was 99 % of control and 116 % of control; the T/C under setting [2] was 111 % of control and 114 % of control and 115 % of control; the T/C under setting [3] was 106 % of control and 124 % of control; the T/C under setting [4] is 168 % of control.
Regarding `CCOC(=O)C1CCC=CC1OC(C)=O` (configuration not stated), the T/C by setting is: (dose: 100.0 mg/kg/injection, schedule: Q01DX001 (ip), vehicle: olive oil, sesame oil, peanut oil) 112 % of control; (dose: 200.0 mg/kg/injection, schedule: Q01DX001 (ip), vehicle: olive oil, sesame oil, peanut oil) 108 % of control; (dose: 400.0 mg/kg/injection, schedule: Q01DX001 (ip), vehicle: olive oil, sesame oil, peanut oil) 107 % of control.
As for `CNCC1CCCO1` (configuration not stated), the T/C (dose: 25.0 mg/kg/injection, schedule: Q04DX003 (ip), vehicle: saline) was 100 % of control; the T/C (dose: 50.0 mg/kg/injection, schedule: Q04DX003 (ip), vehicle: saline) was 100 % of control; the T/C (dose: 100.0 mg/kg/injection, schedule: Q04DX003 (ip), vehicle: saline) was 100 % of control; the T/C (dose: 200.0 mg/kg/injection, schedule: Q04DX003 (ip), vehicle: saline) is 99 % of control.
Turning to `C=CCn1c(NCCN(CC)CC)nc2ccc(Cl)cc2c1=O`, the T/C runs as follows: (dose: 12.5 mg/kg/injection, schedule: Q01DX009 (ip), vehicle: saline sonified) 100 % of control; (dose: 25.0 mg/kg/injection, schedule: Q01DX009 (ip), vehicle: saline sonified) 104 % of control; (dose: 50.0 mg/kg/injection, schedule: Q01DX009 (ip), vehicle: saline sonified) 104 % of control.
For `CC(=O)c1ccc(-n2c(=O)n(-c3ccccc3)c3nc4cc(C)ccc4nc32)cc1`, the T/C is, setting by setting: under setting [5], 90 % of control; under setting [6], 92 % of control; under setting [7], 98 % of control.
On to `CC(=O)O[C@@H]1[C@@H](O)[C@H]2O[C@@H]3C=C(C)CC[C@]3(CO)[C@]1(C)[C@@]21CO1`, for which the T/C (dose: 1.25 mg/kg/injection, schedule: Q01DX009 (ip), vehicle: saline with Tween-80) is 110 % of control and 120 % of control; the T/C (dose: 2.5 mg/kg/injection, schedule: Q01DX009 (ip), vehicle: saline with Tween-80) is 118 % of control and 121 % of control; the T/C (dose: 5.0 mg/kg/injection, schedule: Q01DX009 (ip), vehicle: saline with Tween-80) is 120 % of control; the T/C (dose: 20.0 mg/kg/injection, schedule: Q01DX009 (ip), vehicle: saline with Tween-80) was 93 % of control.
For `Cc1cc2nc3ccc(N)cc3oc-2cc1=[N+](C)C`, the T/C by setting is: under setting [1], 108 % of control; (dose: 50.0 mg/kg/injection, schedule: Q01DX009 (ip), vehicle: saline) 100 % of control.
With `Cc1ccc(C(=O)Nc2ccncc2)cc1`, the T/C was 109 % of control (dose: 6.25 mg/kg/injection, schedule: Q01DX009 (ip), vehicle: Klucel (hydroxypropylcellulose) (HPC)) and 99 % of control (dose: 12.5 mg/kg/injection, schedule: Q01DX009 (ip), vehicle: Klucel (hydroxypropylcellulose) (HPC)).
Take `CCOc1c(N=Nc2ccccc2)c(C)nn1C(=S)SC`: the T/C runs as follows: (dose: 60.0 mg/kg/injection, schedule: Q01DX005 (ip), vehicle: Klucel + Tween-80) 110 % of control; (dose: 120.0 mg/kg/injection, schedule: Q01DX005 (ip), vehicle: Klucel + Tween-80) 108 % of control; (dose: 240.0 mg/kg/injection, schedule: Q01DX005 (ip), vehicle: Klucel + Tween-80) 100 % of control.
